From patent US20210346312A1, “Flat Product for Microbiological Sanitation of the Urogenital Tract” (Tecuro Medical GmbH, priority 2018, published 2021)

System: Reconstituted human 3D EpiVaginal models
Test: Cytotoxicity test (MTT assay, based on DIN ISO 10993-5)
Assay type: cell-based
Conditions: positive control, 1%, typical value
Method: To determine the compatibility of a planar product for treatment of the urogenital tract, the Cytotoxicity Test described below can be used. It is based on the standard DIN ISO 10993-5.
Reconstituted human 3D EpiVaginal models (e.g., MatTek) are used. To this end, an element of 6 mm in diameter from a planar product according to the invention is topically applied to the 3D EpiVaginal skin models and incubated on the models for 3 and 18 hours. Skin models treated with sterile water are used as negative control, and skin models treated with the […] surfactant Triton X-100 (1%) are used as positive control. The vitality of the skin models is evaluated in the MTT assay (3-(4,5-dimethylthiazol-2-yl)-2,5-diphenyltetrazolium bromide) (see Stockert et al. Acta Histochemica 120: 159-167 (2018), doi: 10.1016/j.acthis.2018.02.005; Chacon et al. In Vitro Methods in Pharmaceutical Research, ISBN 9780080534602 and https://en.wikipedia.org/wiki/MTT_assay). This involves setting the vitality value of the negative control to 100%. […] According to the invention, what is considered to be an acceptable value is typically a vitality of >80% after 18 h.

## Triton X-100
3 h
  vitality after 3 h of incubation: 25%
18 h
  vitality after 18 h: less than 10%
